Consider one compound from paper PMC4032265 (PLoS ONE, 2014).

One assay has as its system sigma (σ) receptors. As to conditions: cited from earlier work.
For assay [1], the system named is peripheral cholecystokinin receptors. The note with it: cited from earlier work.
For assay [2], the target named is T1, 5HT2C serotonergic receptor (Homo sapiens, UniProt P28335).
T1 sequence (P28335 33-458): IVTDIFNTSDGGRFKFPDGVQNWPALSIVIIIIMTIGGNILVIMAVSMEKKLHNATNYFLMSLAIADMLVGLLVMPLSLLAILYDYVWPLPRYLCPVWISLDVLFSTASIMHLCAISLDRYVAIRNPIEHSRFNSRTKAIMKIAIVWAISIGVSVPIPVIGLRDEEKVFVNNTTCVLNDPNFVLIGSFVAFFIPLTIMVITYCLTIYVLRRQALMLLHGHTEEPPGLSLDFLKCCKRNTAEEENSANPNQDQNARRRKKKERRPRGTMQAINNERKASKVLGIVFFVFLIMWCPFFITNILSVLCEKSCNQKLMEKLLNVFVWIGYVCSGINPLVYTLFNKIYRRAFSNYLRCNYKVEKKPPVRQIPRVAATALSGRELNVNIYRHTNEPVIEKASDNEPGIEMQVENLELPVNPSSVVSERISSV
Kind of assay: PDSP radioligand binding, 5HT2C. As to conditions: full concentration-response curves, n = 3-6 unless noted.

Assay [3] concerns the target 5HT2B serotonergic receptor (Homo sapiens, UniProt P41595). Description: PDSP radioligand binding, 5HT2B. As to conditions: full concentration-response curves, n = 3-6 unless noted.
Assay [4] deals with 41 diverse receptors, channels and a transporter. Description: PDSP broad screen: summary of off-target interactions. The note with it: besides 5HT2B and 5HT2C.

5HT2B serotonergic receptor, sequence (P41595 whole entry): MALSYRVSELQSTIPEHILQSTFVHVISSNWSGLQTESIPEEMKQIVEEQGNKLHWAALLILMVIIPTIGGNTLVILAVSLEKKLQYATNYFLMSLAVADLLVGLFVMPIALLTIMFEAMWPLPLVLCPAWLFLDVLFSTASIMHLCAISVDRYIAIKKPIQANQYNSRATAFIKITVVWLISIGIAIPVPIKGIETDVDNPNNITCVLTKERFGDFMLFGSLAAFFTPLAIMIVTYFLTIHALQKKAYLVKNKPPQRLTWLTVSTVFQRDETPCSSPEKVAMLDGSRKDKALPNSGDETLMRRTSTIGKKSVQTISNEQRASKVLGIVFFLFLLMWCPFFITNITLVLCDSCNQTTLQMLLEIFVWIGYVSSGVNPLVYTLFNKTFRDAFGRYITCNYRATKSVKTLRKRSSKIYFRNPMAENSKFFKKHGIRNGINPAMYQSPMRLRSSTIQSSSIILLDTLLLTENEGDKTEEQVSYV

The Ki is a dissociation constant, usually derived from enzyme kinetics or from competition with a known ligand. As to `CNC(=O)[C@H]1O[C@@H](n2cnc3c(NCc4cccc(I)c4)ncnc32)[C@H](O)[C@@H]1O` [IB-MECA, N ^6-(3-iodobenzyl)-5′-N-methylcarboxamidoadenosine], the “binding inhibition at 10 µM” value (with sigma (σ) receptors; in assay [1]) was 50–70% throughout. Moreover, the figures for the Ki in assay [2] and in assay [3] were 5.42 µM and 1.08 µM, respectively. In addition, the “other off-target interactions in pharmacological screening” value in assay [4] is “no other off-target interactions”.
